Measurements: patent publication US20230072421A1, “TARGETED RADIOPHARMACEUTICALS FOR THE DIAGNOSIS AND TREATMENT OF PROSTATE CANCER” (Bayer AS, priority 2019, published 2023)

Assays:
C4-2 cells = experiment: Cell proliferation assay (CellTiter-Glo, 5-day exposure), C4-2; type: cell-based; conditions: C4-2, 1000 cells/well, Th-227 labelled at 375 kBq/nmol, mean of 1 to 6 experiments
Procedure, shortened: (§1)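 Seeding was 4000 cells/well for VCaP and 1000 cells/well for 22Rv1, C4-2 and LNCaP, followed by overnight culture at 37° C and 5% CO2. Cells were exposed to Thorium-227-labeled PSMA ligands for 5 days, and viability was measured by CellTiter-Glo luminescence both at treatment start and at the end.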

22Rv1 cells = experiment: Cell proliferation assay (CellTiter-Glo, 5-day exposure), 22Rv1; type: cell-based; conditions: 22Rv1, 1000 cells/well, Th-227 labelled at 375 kBq/nmol, mean of 1 to 6 experiments
Procedure, shortened: as §1

[1] = tested on: LNCaP human prostate cancer cells; experiment: LNCaP xenograft efficacy study (T/C tumor area); type: in vivo, SCID mice
Procedure, shortened: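 SCID mice with testosterone pellet bearing s.c. flank LNCaP xenografts (5×10^6 cells in Matrigel) were treated i.v. with a defined radioactive dose once tumors reached 35-50 mm^2 (n=10/group). Tumor area (caliper, longest diameter × perpendicular) measured 2-3× weekly; T/C ratio calculated from tumor areas when vehicle group closed.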

[2] = Biodistribution study in LNCaP tumor-bearing mice (Th227 counted in organs); type: in vivo, SCID mice; conditions: 1500 kBq/kg
Procedure, shortened: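 SCID mice bearing testosterone pellets and subcutaneous LNCaP flank tumors (~50 mm^2) received a single intravenous dose of the radioactive compound. At set time points, n=3 animals were sacrificed, and organs were removed, weighed and counted for Th227 on a Germanium detector.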

## O=C([O-])CN1CCN(CC(=O)[O-])CCN(CC(=O)NCC2CCC(C(=O)NC(Cc3ccc4ccccc4c3)C(=O)NCCCCC(NC(=O)NC(CCC(=O)O)C(=O)O)C(=O)O)CC2)CCN(CC(=O)[O-])CC1.[227Th+4] [Example 1-B-D-227Th, [^227Th]Thorium-(3S,10S,14R)-3-[(naphthalen-2-yl)methyl]-1,4,12-trioxo-1-{(1r,4S)-4-[(2-{4,7,10-tris[(carboxy-kappaO)methyl]-1,4,7,10-tetraazacyclododecan-1-yl-kappa^4N^1,N^4,N^7,N^10}acetamido)methyl]cyclohexyl}-2,5,11,13-tetraazahexadecane-10,14,16-tricarboxylate]
C4-2 cells
  Proliferation assay on cancer cell lines by TTCs Default Pivot #3 IC50 [kBq/mL] C4-2 1000cells 375kBq/nmol (mean): 3.15 kBq/mL
22Rv1 cells
  Proliferation assay on cancer cell lines by TTCs Default Pivot #3 IC50 [kBq/mL] 22Rv1 1000cells 375kBq/nmol (mean): 1.28 kBq/mL
[1]; Example IV, day 36 after start of therapy, once 1 MBq/kg
  T/Carea: 0.81
[1]; Example V, day 27 after start of therapy, once 750 kBq/kg
  T/Carea: 0.91
[2]; 0.25 h
  Th-227 in Blood: 4.97% ID Th-227/g organ
  Th-227 in Liver: 1.25% ID Th-227/g organ
  Th-227 in Spleen: 1.91% ID Th-227/g organ
  Th-227 in Tumor: 2.08% ID Th-227/g organ
  Th-227 in bone: 1.70% ID Th-227/g organ
  Th-227 in brain: 0.18% ID Th-227/g organ
  Th-227 in kidney: 10.76% ID Th-227/g organ
  Th-227 in large intestine: 0.75% ID Th-227/g organ
  Th-227 in lung: 3.67% ID Th-227/g organ
  Th-227 in muscle: 0.88% ID Th-227/g organ
  Th-227 in prostate: 6.26% ID Th-227/g organ
  Th-227 in salivary glands: 1.61% ID Th-227/g organ
  Th-227 in small intestine: 1.21% ID Th-227/g organ
[2]; 1 hr
  Th-227 in Blood: 1.04% ID Th-227/g organ
  Th-227 in Liver: 0.59% ID Th-227/g organ
  Th-227 in Spleen: 1.09% ID Th-227/g organ
  Th-227 in Tumor: 1.16% ID Th-227/g organ
  Th-227 in bone: 0.99% ID Th-227/g organ
  Th-227 in kidney: 4.11% ID Th-227/g organ
  Th-227 in large intestine: 0.18% ID Th-227/g organ
  Th-227 in lung: 0.98% ID Th-227/g organ
  Th-227 in muscle: 0.24% ID Th-227/g organ
  Th-227 in prostate: 2.87% ID Th-227/g organ
  Th-227 in salivary glands: 0.52% ID Th-227/g organ
  Th-227 in small intestine: 0.26% ID Th-227/g organ
[2]; 4 hr
  Th-227 in Blood: 0.20% ID Th-227/g organ
  Th-227 in Liver: 0.43% ID Th-227/g organ
  Th-227 in Spleen: 0.34% ID Th-227/g organ
  Th-227 in Tumor: 1.59% ID Th-227/g organ
  Th-227 in bone: 1.68% ID Th-227/g organ
  Th-227 in brain: 0.01% ID Th-227/g organ
  Th-227 in kidney: 2.97% ID Th-227/g organ
  Th-227 in large intestine: 0.17% ID Th-227/g organ
  Th-227 in lung: 0.43% ID Th-227/g organ
  Th-227 in muscle: 0.05% ID Th-227/g organ
  Th-227 in salivary glands: 0.30% ID Th-227/g organ
  Th-227 in small intestine: 0.17% ID Th-227/g organ
[2]; 24 h
  Th-227 in Liver: 0.31% ID Th-227/g organ
  Th-227 in Spleen: 0.23% ID Th-227/g organ
  Th-227 in Tumor: 0.95% ID Th-227/g organ
  Th-227 in bone: 1.29% ID Th-227/g organ
  Th-227 in kidney: 0.83% ID Th-227/g organ
  Th-227 in large intestine: 0.07% ID Th-227/g organ
  Th-227 in lung: 0.16% ID Th-227/g organ
  Th-227 in muscle: 0.00% ID Th-227/g organ
  Th-227 in salivary glands: 0.09% ID Th-227/g organ
  Th-227 in small intestine: 0.08% ID Th-227/g organ
[2]; 96 h
  Th-227 in Liver: 0.31% ID Th-227/g organ
  Th-227 in Spleen: 0.29% ID Th-227/g organ
  Th-227 in Tumor: 1.05% ID Th-227/g organ
  Th-227 in bone: 2.88% ID Th-227/g organ
  Th-227 in kidney: 0.37% ID Th-227/g organ
  Th-227 in lung: 0.14% ID Th-227/g organ
  Th-227 in muscle: 0.00% ID Th-227/g organ
  Th-227 in salivary glands: 0.13% ID Th-227/g organ
  Th-227 in small intestine: 0.06% ID Th-227/g organ
